From BindingDB's records for patent WO2022098809 (Merck Sharp &Amp, 2022)

The compounds below were run against Mitogen-activated protein kinase kinase kinase kinase 1 (Homo sapiens, UniProt Q92918) (assay: HPK1-SLP76 TR-FRET ASSAY).
Description: Compounds are serially diluted (3-fold in 100% DMSO) across a 384-well polypropylene source plated from column 3 to column 12 and column 13 to column 22, to yield 10 concentration dose responses for each test compound. Columns 1, 2, 23 and 24 contain either only DMSO or a pharmacological known control inhibitor. […] Enzyme, Substrate and Stop/Detection solutions are prepared in assay buffer. […] Kinase reaction is initiated with addition of 2.5 μL of substrate solution (ATP 10uM and SLP7610 nM Final) and allowed to proceed for 60 minutes. […] Plates are incubated at room temperature for 30 minutes. Reactions are initiated by addition of 2.5 μL of 3x substrate solution (10 nM SLP76 and 10 uM ATP FInal) using BioRaptr. Plates are incubated at room temperature for one hour.

Sequence of Mitogen-activated protein kinase kinase kinase kinase 1 (Q92918 whole entry): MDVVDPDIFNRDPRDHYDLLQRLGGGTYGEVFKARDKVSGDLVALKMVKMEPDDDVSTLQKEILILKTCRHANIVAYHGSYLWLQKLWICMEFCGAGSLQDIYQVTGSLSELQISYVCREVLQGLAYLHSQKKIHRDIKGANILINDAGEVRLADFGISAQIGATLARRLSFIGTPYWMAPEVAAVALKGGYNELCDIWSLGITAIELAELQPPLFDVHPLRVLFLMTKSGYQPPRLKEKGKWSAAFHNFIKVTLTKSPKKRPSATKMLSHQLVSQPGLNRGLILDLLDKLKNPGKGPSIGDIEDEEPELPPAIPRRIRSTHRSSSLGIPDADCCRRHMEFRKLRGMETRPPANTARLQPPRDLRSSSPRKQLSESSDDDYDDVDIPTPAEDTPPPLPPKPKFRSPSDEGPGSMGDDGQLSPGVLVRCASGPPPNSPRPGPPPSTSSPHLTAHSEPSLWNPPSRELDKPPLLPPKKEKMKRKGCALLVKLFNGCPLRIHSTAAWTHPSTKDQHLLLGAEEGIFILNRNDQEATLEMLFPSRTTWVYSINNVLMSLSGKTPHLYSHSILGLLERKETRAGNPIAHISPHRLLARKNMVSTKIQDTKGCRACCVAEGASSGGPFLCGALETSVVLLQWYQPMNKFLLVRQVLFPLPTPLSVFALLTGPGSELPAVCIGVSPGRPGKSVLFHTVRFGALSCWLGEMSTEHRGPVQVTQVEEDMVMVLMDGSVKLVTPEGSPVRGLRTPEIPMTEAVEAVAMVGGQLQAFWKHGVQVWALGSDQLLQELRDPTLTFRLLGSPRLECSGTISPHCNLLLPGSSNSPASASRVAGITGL

| SMILES | IC50 |
| --- | --- |
| CN1CCc2cc(F)c(Nc3ncc(C(N)=O)c(Nc4c(F)ccc5c4OC(C)(C)C5)n3)cc2C1 [WO2022098809, Example 4-32] | 1.13 nM |
| Cc1cccc(F)c1Nc1nc(Nc2c(C)nn(C)c2C)ncc1C(N)=O [WO2022098809, Example 4-35] | 158 nM |
| COc1cc2c(cc1Nc1ncc(C(N)=O)c(Nc3ccc(C)cc3C(C)(C)C)n1)CN(C)CC2 [WO2022098809, Example 4-28] | 0.26 nM |

The next compounds have a lower IC50 than those just listed; values first:

| IC50 | SMILES |
| --- | --- |
| 0.2 nM | Cc1cc(F)c(Nc2nc(Nc3cc4c(cc3F)CCN(C)C4)ncc2C(N)=O)c(C(F)(F)F)c1 [WO2022098809, Example 4-29] |
| 0.2 nM | COc1cc2c(cc1Nc1ncc(C(N)=O)c(Nc3c(F)cccc3CC(F)F)n1)CN(C)CC2 [WO2022098809, Example 4-31] |
| 0.17 nM | COc1cc2c(cc1Nc1ncc(C(N)=O)c(Nc3ccc(C)cc3C3CC3)n1)CN(C)CC2 [WO2022098809, Example 4-26] |
| 0.08 nM | CCc1cc(C)ccc1Nc1nc(Nc2cc3c(cc2OC)CCN(C)C3)ncc1C(N)=O [WO2022098809, Example 4-27] |
